According to patent US20230372313A1, “METHODS FOR REDUCING GLYCOSPHINGOLIPID CONCENTRATION IN BRAIN TISSUE AND METHODS OF TREATMENT OF NEURODEGENERATIVE DISEASES INVOLVING THE SAME” (GENZYME CORPORATION, priority 2020, published 2023):
Where two headings read alike, the source gives them in different places.

Experiment: Plasma pharmacokinetics of Compound 2 in PD participants (LC-MS/MS)
Type: in vivo, human
Settings: plasma, plasma; for Tmax / AUC(0-t) / Cmax: human, po; for Tmax: read-out: tmax, median
Protocol: Participants were randomised to 3 doses of once-daily orally administered Compound 2 or placebo, in sequential cohort design, and were followed up to 36 weeks (52 weeks for Japanese participants). Participants in the low-dose group received 4 mg of Compound 2 as a once daily oral dose; participants in the mid-dose group received 8 mg of Compound 2 a once daily oral dose; and participants in the high-dose group received 15 mg of Compound 2 a once daily oral dose.
Analyses were based on all available data from participants who enrolled in part 1 of the trial and were randomised to receive either Compound 2 or placebo for up to 52 weeks for Japanese participants and 36 weeks for the ROW population. As part 1 was an exploratory, dose-escalation study, the sample size was not based on a statistical power calculation. Participants included in the primary safety analyses were those who were randomized and received at least one dose of Compound 2 or placebo. A data monitoring committee was responsible for overseeing the safety of patients and the risk/benefit ratio throughout the study. Duration of exposure to Compound 2 was different among the doses, as per the sequential cohort design, with the low- and high-dose cohorts commencing the study first and last, respectively. For pharmacokinetics, plasma parameters were calculated using noncompartmental methods, from plasma Compound 2 concentrations obtained after single dose administration. AUC0-24 and AUC0-48 were calculated using the trapezoidal method over a predefined time period of 24 hours or 48 hours, respectively. CLss/F was calculated using the following equation: CLss/F=Dose/AUCτ, where τ is the dosing interval. For pharmacodynamics, percent reduction of plasma or CSF GL-1 from baseline was calculated as (value−baseline)/baseline×100. Formal statistical testing was not conducted on MDS-UPDRS scale assessments.
The secondary outcome was to evaluate the pharmacokinetic profile of Compound 2 in plasma and cerebrospinal fluid (CSF) over a 4-week period. Plasma pharmacokinetic parameters included maximum plasma concentration (Cmax), time to Cmax (tmax), and area under the plasma concentration versus time curve from 0 to 24 h (AUC0-24). All parameters were assessed at Week 0 and Week 4 after treatment. In addition, AUC0-48 was assessed at Week 0, trough plasma concentration observed just before treatment administration during repeated dosing (Ctrough) was assessed at Weeks 2, 4, and 8 (FIG. 3), and total systemic clearance from plasma at steady state (CLSS/F) was assessed at Week 4. Plasma samples were collected at 1 hour pre-dose and 1, 2, 4, 8, 24, and 48 hours postdose. Compound 2 concentration in plasma was determined using a liquid chromatography tandem mass spectrometry method with a lower limit of quantification of 0.500 ng/mL. CSF samples were collected by lumbar puncture during the screening period (within 14 days prior to randomisation) or on the day of randomisation, and at Week 4, within 2 to 4 hours postdose. Compound 2 concentration in CSF was determined using a liquid chromatography tandem mass spectrometry method with a lower limit of quantification of 0.100 ng/mL.

[1] = Week 4, Japan, High 15 mg once daily oral, n = 2
[2] = Week 4, Japan, High 15 mg vs Low 4 mg
[3] = Week 4, Japan, Low 4 mg once daily oral, n = 1
[4] = Week 4, Japan, Mid 8 mg once daily oral, n = 3
[5] = Week 4, Japan, Mid 8 mg vs Low 4 mg
[6] = Week 4, ROW, High 15 mg once daily oral, n = 4
[7] = Week 4, ROW, High 15 mg vs Low 4 mg
[8] = Week 4, ROW, Low 4 mg once daily oral, n = 4
[9] = Week 4, ROW, Mid 8 mg once daily oral, n = 5
[10] = Week 4, ROW, Mid 8 mg vs Low 4 mg

**Q.** Which Tmax (8 mg, Week 4, Japan, Mid 8 mg once daily oral, n = 3) does the source give for CC(C)(NC(=O)O[C@@H]1CN2CCC1CC2)c1csc(-c2ccc(F)cc2)n1 [Compound 2, (S)-quinuclidin-3-yl (2-(2-(4-fluorophenyl)thiazol-4-yl)propan-2-yl)carbamate] here?
**A.** 2.12 h

**Q.** And the AUC(0-t) (8 mg, Week 4, ROW, Mid 8 mg once daily oral, n = 5, read-out: AUC0-24, Geometric mean)?
**A.** 1490 ng·h/mL

**Q.** And the AUC(0-t) (8 mg, Week 4, ROW, Mid 8 mg once daily oral, n = 5, read-out: AUC0-24, mean)?
**A.** 1510 ng·h/mL

**Q.** And the Cmax (8 mg, Week 4, ROW, Mid 8 mg once daily oral, n = 5, read-out: Cmax, Geometric mean)?
**A.** 75.8 ng/mL

**Q.** And the Cmax (8 mg, Week 4, ROW, Mid 8 mg once daily oral, n = 5, read-out: Cmax, mean)?
**A.** 77.8 ng/mL

**Q.** And the Tmax (8 mg, Week 4, ROW, Mid 8 mg once daily oral, n = 5)?
**A.** 3.55 h

**Q.** And the AUC(0-t) (15 mg, Day 1, Japan, High 15 mg oral, n = 3, read-out: AUC0-24, Geometric mean)?
**A.** 977 ng·h/mL

**Q.** And the AUC(0-t) (15 mg, Day 1, Japan, High 15 mg oral, n = 3, read-out: AUC0-24, mean)?
**A.** 990 ng·h/mL

**Q.** What about the AUC(0-t) (15 mg, Day 1, Japan, High 15 mg oral, n = 3, read-out: AUC0-48, Geometric mean) of the same compound?
**A.** 1570 ng·h/mL

**Q.** And the AUC(0-t) (15 mg, Day 1, Japan, High 15 mg oral, n = 3, read-out: AUC0-48, mean)?
**A.** 1590 ng·h/mL

**Q.** And the Cmax (15 mg, Day 1, Japan, High 15 mg oral, n = 3, read-out: Cmax, mean)?
**A.** 54.1 ng/mL

**Q.** And the Tmax (15 mg, Day 1, Japan, High 15 mg oral, n = 3)?
**A.** 4.1 h

**Q.** And the AUC(0-t) (15 mg, Day 1, ROW, High 15 mg oral, n = 4, read-out: AUC0-24, Geometric mean)?
**A.** 868 ng·h/mL

**Q.** What about the AUC(0-t) (15 mg, Day 1, ROW, High 15 mg oral, n = 4, read-out: AUC0-24, mean) of the same compound?
**A.** 873 ng·h/mL

**Q.** What about the AUC(0-t) (15 mg, Day 1, ROW, High 15 mg oral, n = 4, read-out: AUC0-48, Geometric mean) of the same compound?
**A.** 1440 ng·h/mL

**Q.** And the AUC(0-t) (15 mg, Day 1, ROW, High 15 mg oral, n = 4, read-out: AUC0-48, mean)?
**A.** 1450 ng·h/mL

**Q.** What about the Cmax (15 mg, Day 1, ROW, High 15 mg oral, n = 4, read-out: Cmax, Geometric mean) of the same compound?
**A.** 47.1 ng/mL

**Q.** And the Cmax (15 mg, Day 1, ROW, High 15 mg oral, n = 4, read-out: Cmax, mean)?
**A.** 47.4 ng/mL

**Q.** And the Tmax (15 mg, Day 1, ROW, High 15 mg oral, n = 4)?
**A.** 3.94 h

**Q.** What about the AUC(0-t) (15 mg, Week 4, Japan, High 15 mg once daily oral, n = 2, read-out: AUC0-24, Geometric mean) of the same compound?
**A.** 3140 ng·h/mL

**Q.** What about the AUC(0-t) (15 mg, Week 4, Japan, High 15 mg once daily oral, n = 2, read-out: AUC0-24, mean) of the same compound?
**A.** 3150 ng·h/mL

**Q.** What about the Cmax (15 mg, Week 4, Japan, High 15 mg once daily oral, n = 3, read-out: Cmax, Geometric mean) of the same compound?
**A.** 144 ng/mL

**Q.** And the Cmax (15 mg, Week 4, Japan, High 15 mg once daily oral, n = 3, read-out: Cmax, mean)?
**A.** 145 ng/mL

**Q.** And the Tmax (15 mg, Week 4, Japan, High 15 mg once daily oral, n = 3)?
**A.** 2.1 h

**Q.** And the AUC(0-t) (15 mg, Week 4, ROW, High 15 mg once daily oral, n = 4, read-out: AUC0-24, Geometric mean)?
**A.** 2490 ng·h/mL

**Q.** And the AUC(0-t) (15 mg, Week 4, ROW, High 15 mg once daily oral, n = 4, read-out: AUC0-24, mean)?
**A.** 2510 ng·h/mL

**Q.** What about the Cmax (15 mg, Week 4, ROW, High 15 mg once daily oral, n = 4, read-out: Cmax, Geometric mean) of the same compound?
**A.** 135 ng/mL

**Q.** And the Cmax (15 mg, Week 4, ROW, High 15 mg once daily oral, n = 4, read-out: Cmax, mean)?
**A.** 136 ng/mL

**Q.** And the Tmax (15 mg, Week 4, ROW, High 15 mg once daily oral, n = 4)?
**A.** 2.89 h

**Q.** And the “Cmax, Geometric mean” value (Day 1, Japan, High 15 mg oral, n = 3)?
**A.** 53.3 ng/mL

**Q.** What about the “CLss/F, Geometric mean” value [1] of the same compound?
**A.** 4770 mL/h

**Q.** What about the “CLss/F, mean” value [1] of the same compound?
**A.** 4780 mL/h

**Q.** And the “AUC0-24, Fold increase vs low dose” value [2]?
**A.** 2.78 fold

**Q.** What about the “CLss/F, Fold increase vs low dose” value [2] of the same compound?
**A.** 1.35 fold

**Q.** What about the “Cmax (geometric mean), Fold increase vs low-dose” value (“Cmax … Fold increase vs low-dose” below) [2] of the same compound?
**A.** 2.56 fold

**Q.** And the “CLss/F, Geometric mean” value [3]?
**A.** 3540 mL/h

**Q.** And the “CLss/F, mean” value [3]?
**A.** 3540 mL/h

**Q.** What about the “CLss/F, Geometric mean” value [4] of the same compound?
**A.** 4930 mL/h

**Q.** And the “CLss/F, mean” value [4]?
**A.** 5010 mL/h

**Q.** What about the “Cmax, mean” value [4] of the same compound?
**A.** 83.7 ng/mL

**Q.** And the “AUC0-24, Fold increase vs low dose” value [5]?
**A.** 1.43 fold

**Q.** And the “CLss/F, Fold increase vs low dose” value [5]?
**A.** 1.39 fold

**Q.** What about the “Cmax … Fold increase vs low-dose” value [5] of the same compound?
**A.** 1.47 fold

**Q.** What about the “CLss/F, Geometric mean” value [6] of the same compound?
**A.** 6030 mL/h

**Q.** And the “CLss/F, mean” value [6]?
**A.** 6100 mL/h

**Q.** What about the “AUC0-24, Fold increase vs low dose” value [7] of the same compound?
**A.** 3.26 fold

**Q.** What about the “CLss/F, Fold increase vs low dose” value [7] of the same compound?
**A.** 1.15 fold

**Q.** And the “Cmax … Fold increase vs low-dose” value [7]?
**A.** 3.29 fold

**Q.** And the “CLss/F, Geometric mean” value [8]?
**A.** 5240 mL/h

**Q.** What about the “CLss/F, mean” value [8] of the same compound?
**A.** 5270 mL/h

**Q.** And the “CLss/F, Geometric mean” value [9]?
**A.** 5370 mL/h

**Q.** And the “CLss/F, mean” value [9]?
**A.** 5450 mL/h

**Q.** And the “AUC0-24, Fold increase vs low dose” value [10]?
**A.** 1.95 fold

**Q.** And the “CLss/F, Fold increase vs low dose” value [10]?
**A.** 1.02 fold

**Q.** And the “Cmax … Fold increase vs low-dose” value [10]?
**A.** 1.85 fold

**Q.** And the Ctrough versus dose (Weeks 2, 4, and 8 (FIG. 3))?
**A.** increased in a dose-proportional manner
